{"source": "patent US20260240915A1", "about": "“USE OF EXTRACELLULAR VESICLES FOR THE TREATMENT OF CANCER” (HENRY FORD HEALTH SYSTEM, priority 2023, published 2026)", "key": {"[1]": {"test_system": "HepG2 hepatocellular carcinoma cells", "experiment": "MTT cell viability assay, HepG2", "assay_type": "cell-based", "conditions": "for effect of inhibitor alone on cancer viability: CPZ 2.5 to 10 μg/ml, nystatin 5 to 30 μM", "description": "(§1) Based on preliminary research, we hypothesized that under duress, cells and cell lines might generate exosomes that are deleterious specifically to malignant cells and tissue. We also speculated that exosomes could be loaded with specific microRNA (mi-RNA) that might further enhance anti-cancer activity and specificity. We initiated studies with human cerebral endothelial cells (HCEC) because […], endothelial cells would be able to release exosomes directly into the systemic circulation where they could travel to cancer sites. The initial mechanism of cellular stress we chose for the HCEC cells was oxygen-glucose deprivation (OGD). HCEC cells were exposed to OGD deprivation for a period of four hours and then exosomes were harvested and purified (See methods). HCEC cells exposed to OGD deprivation for longer than four hours started to lose viability. The “4 h-OGD-exosomes” were then tested for their effect on the viability of hepatocellular cancer cell lines, HepG2 and Hep3B, and on the benign liver cell line, THLE-2. To assay the cell viability of target cells, we used the MTT (3-(4,5-Dimethylthiazol-2-yl)-2,5-diphenyltetrazolium bromide) assay (See Methods). All cancer lines used in all of the studies are outlined in Table 1.\n(§2) Cells were cultured in medium with indicated treatment."}, "[2]": {"test_system": "Hep3B hepatocellular carcinoma cells", "experiment": "MTT cell viability assay, Hep3B", "assay_type": "cell-based", "conditions": "for effect of inhibitor alone on cancer viability: CPZ 2.5 to 10 μg/ml, nystatin 5 to 30 μM; for effect of inhibitor pretreatment on the anti-cancer effect of Hypo-Exo: pretreatment with endocytosis inhibitor, then Hypo-Exo", "description": "as §1, §2"}, "HCC patients": {"test_system": "HCC patients", "conditions": "study of 600 patients; cited from earlier work"}, "[3]": {"test_system": "benign THLE-2 liver cell line", "experiment": "MTT cell viability assay, THLE-2", "assay_type": "cell-based", "conditions": "benign liver cells", "description": "as §1, §2"}, "[4]": {"test_system": "primary liver cancer cells taken from patients", "experiment": "Viability of primary liver cancer cells from HCC patients", "protocol": "Exosomes were tested against primary liver cancer cells taken from the patient's tumor as well as non-malignant, normal liver cells taken from a distant site in the explant liver away from the tumor. OGD-Exo were tested along with HCEC-m214-Exo and also with the chemotherapeutic agents, oxaliplatin and Sorafenib. […] OGD-Exo were used at a dose of 10^8 p/ml to avoid excessive killing with OGD-Exo alone. Exosomes were tested against patient 11 (Pt.011) and patient 12 (Pt.012).\n3-(4,5-dimethylthiazol-2-yl)-2,5 diplenyltetrazolium bromide (MTT) assay: To measure cell viability, cells were seeded in 96-well plates at a density of 800 cells per well. Cells were cultured in medium with indicated treatment. After 5 days of treatment, medium was removed and MTT was added to each well with an additional 4 hr incubation to allow mitochondrial dehydrogenase to convert MTT into insoluble formazan crystals. The absorption of solubilized formazan was measured at a wavelength of 490 nm by an ELISA plate reader (EL340 microplate reader; Bio-Tek Instruments, Winooske, VT)."}, "[5]": {"test_system": "hepatitis B-related HCC patients", "conditions": "treatment group, advanced stage patients; cited from earlier work"}}, "note": "Entries after “also recorded” stand apart in the source; their conditions may differ.", "data": [{"compound": "CN(C)CCCN1c2ccccc2Sc2ccc(Cl)cc21", "note": "[CPZ, chlorpromazine]", "values": [{"measurement": "effect of inhibitor alone on cancer viability", "setting": "[1]", "value": "did not affect cancer viability"}, {"measurement": "effect of inhibitor pretreatment on the anti-cancer effect of Hypo-Exo", "setting": "[1]; pretreatment with endocytosis inhibitor, then Hypo-Exo", "value": "significantly attenuated the anti-cancer effect of Hypo-Exo; also recorded: blunt the anti-tumor effect of Hypo-Exo"}, {"measurement": "effect of inhibitor alone on cancer viability", "setting": "[2]", "value": "did not affect cancer viability"}, {"measurement": "effect of inhibitor pretreatment on the anti-cancer effect of Hypo-Exo", "setting": "[2]", "value": "significantly attenuated the anti-cancer effect of Hypo-Exo"}]}, {"compound": "CNC(=O)c1cc(Oc2ccc(NC(=O)Nc3ccc(Cl)c(C(F)(F)F)c3)cc2)ccn1", "note": "[Sorafenib]", "values": [{"measurement": "viability at 1.2 µM", "setting": "[1]; Homo sapiens, HepG2, Hypo-Exo 10^8 p/ml, Sorafenib 1.2 μM", "value": 67.4, "unit": "%"}, {"measurement": "increase in survival", "setting": "HCC patients", "value": "three"}, {"measurement": "effect on cell viability", "setting": "[3]", "value": "negligible impact"}, {"measurement": "cytotoxicity at 1.2 µM", "setting": "[4]; Homo sapiens, read-out: decrease in viability of primary liver cancer cells", "value": "42 to 44", "unit": "%"}, {"measurement": "median overall survival", "setting": "[5]", "value": 6.5, "unit": "months"}, {"measurement": "viability at 0.8 µM", "setting": "[2]; Homo sapiens, Hep3B, Hypo-Exo 10^8 p/ml, Sorafenib 0.8 µM", "value": 80.5, "unit": "%"}]}, {"compound": "C[C@@H]1[C@H](O)[C@@H](C)/C=C/C=C/CC/C=C/C=C/C=C/C=C/C(O[C@H]2O[C@H](C)[C@@H](O)[C@H](N)[C@@H]2O)CC2O[C@](O)(CC(O)C(O)CCC(O)CC(O)CC(O)CC(=O)O[C@H]1C)CC(O)C2C(=O)O", "note": "(some centres unmarked) [nystatin]", "values": [{"measurement": "effect of inhibitor alone on cancer viability", "setting": "[1]", "value": "did not affect cancer viability"}, {"measurement": "effect of inhibitor alone on cancer viability", "setting": "[2]", "value": "did not affect cancer viability"}, {"measurement": "effect of inhibitor pretreatment on the anti-cancer effect of Hypo-Exo", "setting": "[2]", "value": "significantly diminished the anti-cancer effect of Hypo-Exo; also recorded: blunts the effect of Hypo-Exo"}]}, {"compound": "O=C1[O][Pt]2([NH][C@@H]3CCCC[C@H]3[NH]2)[O]C1=O", "note": "[oxaliplatin]", "values": [{"measurement": "decrease in viability of primary liver cancer cells", "setting": "[4]; OGD-Exo 10^8 p/ml, oxaliplatin 0.06125 µM, Sorafenib 1.20 μM, Pt.011 and Pt.012", "value": "approximately 20%"}]}]}
